Here are results for 32 compounds from patent publication US7625917B2, “Thiolesters and uses thereof” (priority 1998, dated 2009).

Like-named read-outs stand apart in the source and are kept apart here.

The subject of assay [1] is CEM-SS cells. Description: cells. Format: cell-based. The method, then: Agents Chemother. […] Briefly, cells are infected with HIV-1 RF (or other virus to be tested) in the presence of various dilutions of test compounds (thiolesters and controls). The cultures are incubated for seven days. […] The cell death is measured by XTT dye reduction. XTT is a soluble tetrazolium dye that measures mitochondrial energy output, similar to MTT. Positive controls using dextran sulfate (an attachment inhibitor) or 3′-Azido-2′-3′-dideoxythymidine, AZT (a reverse transcriptase inhibitor) are added to each assay. Individual assays are done in duplicate using a sister plate method.

For assay [2], the system named is HIV-1RF. Description: XTT cytoprotection assay (antiviral activity). Format: cell-based. The note with it: for EC50: read-out: EC50; for loss of antiviral activity of BITA vs disulfide form, fold decrease: from Table 2. The text has this:
One exemplary means to determine antiviral activity is with CEM-SS cells and virus (e.g., HIV-1RF) (MOI=0.01) using the XTT (2,3-bis[2-methoxy-4-nitro-5-sulfophenyl]-5-[(phenylamino)carbonyl]-2H-tetrazolium hydroxide) cytoprotection assay, as described by Rice (1993) PNAS 90:9721-9724, and Rice (1997) Antimicrob. Agents Chemother. 41:419-426. Briefly, cells are infected with HIV-1 RF (or other virus to be tested) in the presence of various dilutions of test compounds (thiolesters and controls). The cultures are incubated for seven days. During this time control cultures without protective compounds (i.e., compounds with anti-viral activity) replicate virus, induce syncytia, and result in about 90% cell death. The cell death is measured by XTT dye reduction. XTT is a soluble tetrazolium dye that measures mitochondrial energy output, similar to MTT. Positive controls using dextran sulfate (an attachment inhibitor) or 3′-Azido-2′-3′-dideoxythymidine, AZT (a reverse transcriptase inhibitor) are added to each assay. Individual assays are done in duplicate using a sister plate method.
Effective antiviral concentrations providing 50% cytoprotection (EC50), and cellular growth inhibitory concentrations causing 50% cytotoxicity (IC50) are calculated.

Assay [3] addresses T1, recombinant HIV-1 NCp7 protein (Human immunodeficiency virus type 1 group M subtype B, UniProt P03347).
T1 construct: recombinant HIV-1 NCp7 protein
Description: Trp37 zinc finger fluorescence (zinc ejection) assay. It is filed as biochemical. The method, then:
Zinc finger reactivity was measured using a Zn specific fluorochrome, TSQ, N-(6-methoxy-8-quinolyl)-p-toluenesulfonamide, assay or a Trp37 zinc finger fluorescence assay. Fluorescent measurements of the Trp37 residue in the C-terminal finger of recombinant HIV-1 NCp7 protein were performed as described by Rice (1995) Science 270:1194-1197; Rice (1997) Antimicrob. Agents Chemother. 41:419-426. Measurement of Zn ejection from both fingers was measured using the Zn-selective fluorchrome probe TSQ (Molecular Probes, Eugene Oreg.) as described by Rice (1996) J. Med. Chem 39:3606-3616. […] Briefly, 50 nM NCp7 was treated with test compounds for 1 hour at RT in […] buffer containing 10% glycerol and 50 mM Tris-HCl (pH 7.5). Labeled oligomer (0.1 picomole, end labeled [^32P] was added in an equal volume of buffer containing 10% glycerol, 50 mM Tris-HCl (pH 7.5), 400 mM KCl and 40 mM MgCl2. The reaction was continued for 15 min at room temperature, and a total of […] (or ¼ of the total reaction volume) was separated on nondenaturing 4.5% polyacrylamide gels in 0.5× Tris-Borate electrophoresis buffer. NCp7-oligomer complexes were visualized by autoradiography.
Changes in the intrinsic fluorescence of aromatic protein moieties are commonly used to monitor a reaction which involves a change in protein conformation. In the present invention, fluorescence can be used to monitor the loss of metal ion from a zinc finger, e.g., the loss of zinc from a CCHC retroviral zinc finger protein, after contact with a thiolester of the invention. The intrinsic fluorescence of Trp37 in the second zinc finger of HIV-1 NC protein has been used to monitor nucleic acid binding and conformation of the zinc finger complex (see, Summers (1992) supra).
Zinc ejection is measured by the ability of compounds to chemically attack the cysteines in purified NCp7 protein resulting in a loss of fluorescence due to the. movement of the tryptophan 37 residue […] position on the protein. Zinc ejection is measured and expressed as either percent decrease in total fluorescence or decrease in relative fluorescence units per min during a 30 min assay (RFU/min). A thiolester is considered within the scope of the invention if any amount of zinc ejection is detected.

[4] abbreviates: Table 1, 50% cytotoxicity, read-out: IC50.
Where [5] appears, read: Table 2, 50% cytotoxicity, read-out: IC50.
Where [6] appears, read: Table 4, 50% cytotoxicity, read-out: IC50.

The EC50 is the concentration that produces a half-maximal response. Regarding `CC(=O)NS(=O)(=O)c1ccc(-n2sc3ccccc3c2=O)cc1` [Compound 2 BITA, N-[4-(3-oxo-3H-benz[d]isothiazol-2-yl)phenylsulfonyl] acetamide], in assay [1] (Homo sapiens, CEM-SS, Table 1, 50% cytotoxicity, read-out: IC50), the IC50 came out at 34 µM. Moreover, the EC50 in assay [2] (Human immunodeficiency virus 1, Table 1) was determined as 12.6 µM.
Take `CC(=O)NS(=O)(=O)c1ccc(NC(=O)c2ccccc2SSc2ccccc2C(=O)Nc2ccc(S(=O)(=O)NC(C)=O)cc2)cc1` [Compound 2 D, N,N′-(2,2′-dithiodibenzoyl)-bis-sulfacetamide]: the IC50 in assay [1] (setting [4]) is > 200 µM. In addition, the concentration giving a half-maximal response (EC50) in assay [2] (Table 1) amounted to 1.5 µM.
Take `O=C(NS(=O)(=O)c1ccc(-n2sc3ccccc3c2=O)cc1)c1ccccc1` [Compound 3 BITA]: the IC50 in assay [1] (setting [4]) turned out to be 49.5 µM. Also, the concentration for a half-maximal effect (EC50) in assay [2] (Table 1) amounted to 9.3 µM.
For `O=C(NS(=O)(=O)c1ccc(NC(=O)c2ccccc2SSc2ccccc2C(=O)Nc2ccc(S(=O)(=O)NC(=O)c3ccccc3)cc2)cc1)c1ccccc1` [Compound 3 D], the IC50 in assay [1] (setting [4]) was found to be 54.1 µM. In addition, the EC50 in assay [2] (Table 1) came out at 3.8 µM.
On to `O=c1c2ccccc2sn1-c1ccc(S(=O)(=O)Nc2ccc(Cl)nn2)cc1` [Compound 4 BITA], for which the IC50 in assay [1] (setting [4]) came out at 19.2 µM. In addition, the EC50 in assay [2] (Table 1) amounted to 7.1 µM.
In the case of `O=C(Nc1ccc(S(=O)(=O)Nc2ccc(Cl)nn2)cc1)c1ccccc1SSc1ccccc1C(=O)Nc1ccc(S(=O)(=O)Nc2ccc(Cl)nn2)cc1` [Compound 4 D], in assay [1] (setting [4]), the IC50 was determined as 18.3 µM. In assay [2] (Table 1), the 50% effective concentration (EC50) came out at 2.9 µM.
With `O=c1c2ccccc2sn1-c1ccc(S(=O)(=O)Nc2ncccn2)cc1` [Compound 5 BITA], the IC50 in assay [1] (setting [4]) was found to be 50.8 µM. Also, the half-maximal effective concentration (EC50) in assay [2] (Table 1) is 6.5 µM.
For `O=C(Nc1ccc(S(=O)(=O)Nc2ncccn2)cc1)c1ccccc1SSc1ccccc1C(=O)Nc1ccc(S(=O)(=O)Nc2ncccn2)cc1` [Compound 5 D], in that order: 46.4 µM and 2 µM.
For `COc1cc(NS(=O)(=O)c2ccc(-n3sc4ccccc4c3=O)cc2)nc(OC)n1` [Compound 6 BITA], the IC50 in assay [1] (setting [4]) was found to be 56.6 µM. For the same compound, the EC50 in assay [2] (Table 1) was determined as 7.6 µM.
Consider `COc1cc(NS(=O)(=O)c2ccc(NC(=O)c3ccccc3SSc3ccccc3C(=O)Nc3ccc(S(=O)(=O)Nc4cc(OC)nc(OC)n4)cc3)cc2)nc(OC)n1` [Compound 6 D], for which the IC50 in assay [1] (setting [4]) was found to be 52.5 µM. Also, the EC50 in assay [2] (Table 1) is 2.1 µM.
Regarding `COc1ccnc(NS(=O)(=O)c2ccc(-n3sc4ccccc4c3=O)cc2)n1` [Compound 7 BITA], the IC50 in assay [1] (setting [4]) came out at 57.4 µM. The EC50 in assay [2] (Table 1) came to 8.8 µM.
With `COc1ccnc(NS(=O)(=O)c2ccc(NC(=O)c3ccccc3SSc3ccccc3C(=O)Nc3ccc(S(=O)(=O)Nc4nccc(OC)n4)cc3)cc2)n1` [Compound 7 D], the IC50 in assay [1] (setting [4]) was found to be 56.7 µM. In assay [2] (Table 1), the half-maximal effective concentration (EC50) stood at 4.2 µM.
Consider `COc1cnc(NS(=O)(=O)c2ccc(-n3sc4ccccc4c3=O)cc2)nc1` [Compound 8 BITA], for which the IC50 in assay [1] (setting [4]) was 57.6 µM. Besides, the concentration for a half-maximal effect (EC50) in assay [2] (Table 1) amounted to 17.8 µM.
In the case of `COc1cnc(NS(=O)(=O)c2ccc(NC(=O)c3ccccc3SSc3ccccc3C(=O)Nc3ccc(S(=O)(=O)Nc4ncc(OC)cn4)cc3)cc2)nc1` [Compound 8 D], in assay [1] (setting [4]), the IC50 is 55.5 µM. Moreover, the EC50 in assay [2] (Table 1) was 2.1 µM.
Turning to `Cc1cc(C)nc(NS(=O)(=O)c2ccc(-n3sc4ccccc4c3=O)cc2)n1` [Compound 9 BITA], the IC50 in assay [1] (setting [4]) turned out to be 17.1 µM. Further, the EC50 in assay [2] (Table 1) came to 6.9 µM.
In the case of `Cc1cc(C)nc(NS(=O)(=O)c2ccc(NC(=O)c3ccccc3SSc3ccccc3C(=O)Nc3ccc(S(=O)(=O)Nc4nc(C)cc(C)n4)cc3)cc2)n1` [Compound 9 D], the IC50 in assay [1] (setting [4]) is 32.2 µM. Besides, the EC50 in assay [2] (Table 1) was determined as 1.6 µM.
With `COc1ccc(NS(=O)(=O)c2ccc(-n3sc4ccccc4c3=O)cc2)nn1` [Compound 12 BITA], in assay [1] (setting [4]), the IC50 is 55.3 µM. Moreover, the 50% effective concentration (EC50) in assay [2] (Table 1) came to 22.6 µM.
As to `COc1ccc(NS(=O)(=O)c2ccc(NC(=O)c3ccccc3SSc3ccccc3C(=O)Nc3ccc(S(=O)(=O)Nc4ccc(OC)nn4)cc3)cc2)nn1` [Compound 12 D], the IC50 in assay [1] (setting [4]) was determined as 53.8 µM. Also, the EC50 in assay [2] (Table 1) was 4.2 µM.
For `O=c1c2ccccc2sn1-c1ccc(S(=O)(=O)Nc2cnc3ccccc3n2)cc1` [Compound 17 BITA], in assay [1] (setting [4]), the IC50 is 54.7 µM. Also, the EC50 in assay [2] (Table 1) is 9.2 µM.
The matching figures for `O=C(Nc1ccc(S(=O)(=O)Nc2cnc3ccccc3n2)cc1)c1ccccc1SSc1ccccc1C(=O)Nc1ccc(S(=O)(=O)Nc2cnc3ccccc3n2)cc1` [Compound 17 D]: 22.2 µM and 0.72 µM.
As to `Cc1cc(NS(=O)(=O)c2ccc(-n3sc4ccccc4c3=O)cc2)nc(C)n1` [Compound 19 BITA], the IC50 in assay [1] (setting [4]) came to 39.7 µM. Further, the EC50 in assay [2] (Table 1) worked out at 6.5 µM.
For `Cc1cc(NS(=O)(=O)c2ccc(NC(=O)c3ccccc3SSc3ccccc3C(=O)Nc3ccc(S(=O)(=O)Nc4cc(C)nc(C)n4)cc3)cc2)nc(C)n1` [Compound 19 D], in assay [1] (setting [4]), the IC50 amounted to 18.2 µM. Moreover, the 50% effective concentration (EC50) in assay [2] (Table 1) was 1.9 µM.
For `Cc1noc(NS(=O)(=O)c2ccc(-n3sc4ccccc4c3=O)cc2)c1C` [Compound 20 BITA], in that order: 39 µM and 12.8 µM.
For the compound `Cc1noc(NS(=O)(=O)c2ccc(NC(=O)c3ccccc3SSc3ccccc3C(=O)Nc3ccc(S(=O)(=O)Nc4onc(C)c4C)cc3)cc2)c1C` [Compound 20 D], in assay [1] (setting [4]), the IC50 came to 44.2 µM. Further, in assay [2] (Table 1), the concentration giving a half-maximal response (EC50) turned out to be 2.5 µM.
On to `NC(N)=NS(=O)(=O)c1ccc(NC(=O)c2ccccc2SSc2ccccc2C(=O)Nc2ccc(S(=O)(=O)N=C(N)N)cc2)cc1` [Compound 21 D], for which, in assay [1] (setting [4]), the IC50 is > 316 µM. In assay [2] (Table 1), the EC50 worked out at 111 µM.
In the case of `NS(=O)(=O)c1ccc(NS(=O)(=O)c2ccc(-n3sc4ccccc4c3=O)cc2)cc1` [Compound 22 BITA], the IC50 in assay [1] (setting [4]) is 18.1 µM. Further, the EC50 in assay [2] (Table 1) is 6.2 µM.
On to `NS(=O)(=O)c1ccc(NS(=O)(=O)c2ccc(NC(=O)c3ccccc3SSc3ccccc3C(=O)Nc3ccc(S(=O)(=O)Nc4ccc(S(N)(=O)=O)cc4)cc3)cc2)cc1` [Compound 22 D], for which the IC50 in assay [1] (read-out: toxicity / IC50) was 43 µM. Moreover, the 50% effective concentration (EC50) in assay [2] (Table 1) stood at 2.3 µM.
Consider `NS(=O)(=O)c1ccc(Cn2sc3ccccc3c2=O)cc1` [Compound 23 BITA], for which the IC50 in assay [1] (read-out: toxicity / IC50) worked out at 53.7 µM. In addition, in assay [2] (Table 2), the half-maximal effective concentration (EC50) was determined as 13.8 µM. Further, the “loss of antiviral activity of BITA vs disulfide form, fold decrease” value in assay [2] came to 42 fold.
Regarding `NS(=O)(=O)c1ccc(CCn2sc3ccccc3c2=O)cc1` [Compound 24 BITA], the IC50 in assay [1] (setting [5]) came to 45.5 µM. Besides, in assay [2] (Table 2), the EC50 turned out to be 2 µM. Besides, the “loss of antiviral activity of BITA vs disulfide form, fold decrease” value in assay [2] came to 5 fold.
Regarding `NS(=O)(=O)c1ccc(CCNC(=O)c2ccccc2SSc2ccccc2C(=O)NCCc2ccc(S(N)(=O)=O)cc2)cc1` [Compound 24 D, N,N′-(2,2′-dithiodibenzoyl)-bis-4-(2-aminoethyl)benzene-sulfonamide], the IC50 in assay [1] (setting [5]) is 52.8 µM. Besides, the EC50 in assay [2] (Table 2) was determined as 0.41 µM.
In the case of `Nc1cccc(S(=O)(=O)c2cccc(NC(=O)c3ccccc3SSc3ccccc3C(=O)Nc3cccc(S(=O)(=O)c4cccc(N)c4)c3)c2)c1` [Compound 35], the IC50 in assay [1] (setting [6]) stood at 81.5 µM. Also, the “zinc finger reactivity / zinc ejection rate” value in assay [3] is 0.92 RFU/min.
The matching figures for `CC(=O)Nc1cccc(S(=O)(=O)c2cccc(NC(=O)c3ccccc3SSc3ccccc3C(=O)Nc3cccc(S(=O)(=O)c4cccc(NC(C)=O)c4)c3)c2)c1` [Compound 36]: 5.9 µM and 2 RFU/min.
